{"source": "patent US20240049707A1", "about": "“PESTICIDE COMPOSITIONS OF LICOCHALCONE C” (METABOLIC INSIGHTS LTD., priority 2020, published 2024)", "key": {"Rhizoctonia solani": {"system": "Rhizoctonia solani", "assay": "Microplate based assay of bioactivity against Rhizoctonia solani", "assay_type": "cell-based", "conditions": "10 μl of 250 ppm solution + 40 μl inoculum, activity grade x repeats x days of activity/252 x 100", "procedure": "Diluted in DMSO Licochalcone C was added to microplate wells and mixed with 50 μl of hyphae suspension and growth of the fungus, starting from blended hyphae, was monitored by plate reader and visual inspection. Inoculum Preparation of Rhizoctonia solani Hyphae: The concentration of the suspension should be 4×10^4 CFU/ml (diluted 10-fold concentration should be 4000 CFU/ml). Dilute the inoculum stock 1:20 in PDBC—1 ml in 20 ml, or calculate the dilution needed, to prepare final concentration of 2000 CFU/ml. The amount in each well should be about 100 CFU. […] Screening of Plates: • 1) Screen plate at […]: 3d, 7d, 14d and 21d following the assay start • 2) Calculate the difference of absorbance between each screen and the read at zero time • 3) Calculate the percentage of growth inhibition of each well at each time point. […]"}, "Pythium aphanidermatum": {"system": "Pythium aphanidermatum", "assay": "Microplate based screening of bioactivity against Pythium aphanidermatum", "assay_type": "cell-based", "conditions": "10 μl of 250 ppm solution + 40 μl inoculum, activity grade x repeats x days of activity/252 x 100", "procedure": "Grow Pythium aphanidermatum on SCH in 90 mm petri plates to get sporulating hyphae. Each plate will produce 50 ml of zoospores suspension which will be enough for bioactivity screening for ten 96-well plates.\nAdd the same volume (as the suspension) sterile fridge cold 2:PDBC to get 500-2000 spores/ml inoculum. This dilution will result in the amount of 25-100 zoospores in each well. […]\nScreening of Plates: • 1) Read out the plate at […]: 3d, 7d, 14d and 21d following the assay start • 2) Calculate the difference of absorbance between each readout and the readout at zero time • 3) Calculate the percentage of growth inhibition of each well at each time point. […]"}}}
{"smiles": "COc1c(/C=C/C(=O)c2ccc(O)cc2)ccc(O)c1CC=C(C)C", "note": "[Licochalcone C, (E)-3-[4-hydroxy-2-methoxy-3-(3-methylbut-2-enyl)phenyl]-1-(4-hydroxyphenyl)prop-2-en-1-one]", "values": [{"measurement": "Relative Activity value (%)", "setting": "Rhizoctonia solani", "result": 100, "unit": "%"}, {"measurement": "Relative Activity value (%)", "setting": "Pythium aphanidermatum", "result": 100, "unit": "%"}]}
